pIC50: −log10 of the molar value.
Experiments:
[1] = test system: oleic acid-induced HepG2 cell line model; experiment: Bodipy staining of lipid accumulation in oleic acid-induced HepG2 cells; assay type: cell-based; conditions: Homo sapiens, 24 h, OA-induced HepG2, read-out: Inhibitory Rate of lipid accumulation; for inhibition at 100 µg/mL: 100 μg/mL
Procedure: After treatment with compounds for 24 h in a 96-well plate, the supernatant of the HepG2 cells was discarded and cells were washed twice with PBS, then the cells were fixed with 4% paraformaldehyde at room temperature for 20 min. After removing the fixative reagent, the cells were washed twice with PBS. HepG2 cells were stained with 100 μL Bodipy (2 μg/mL, Thermo Fisher Scientific (Waltham, MA, USA)) in the dark at 25 °C for 30 min [30]. The fluorescence was measured using a fluorescence plate reader (Ex = 500 nm, Em = 550 nm, POLARstar, BMG Labtech (Offenburg, Germany)). The inhibition rate was calculated by comparison with the control group which was just treated with DMSO.

[2] = test system: oleic acid-induced HepG2 cell line model; experiment: Oil Red O staining of lipid accumulation in oleic acid-induced HepG2 cells; assay type: cell-based; conditions: Homo sapiens; Oil Red O assay, OA-induced HepG2, 24 h, area of lipid droplets; read-out: IC50 against lipid accumulation
Procedure: HepG2 cells were treated with different concentrations of compounds for 24 h, then were washed twice with PBS and fixed with 4% paraformaldehyde for 15–20 min. The cells were washed with PBS and stained with Oil Red O solution (50 µL per well, Sigma-Aldrich) at 25 °C for 1 h. After washed with PBS for 3–5 times, the lipid droplets and cell morphology were observed by a light microscope and photographed. The area of lipid droplets was statistically compared for IC50 calculation with the control group which was treated with DMSO using Image J software.

[3] = CCK-8 cell viability assay; conditions: human, HepG2 cells
Procedure: Human hepatoma HepG2 cells were obtained from the Beijing Union Medical Cell Resource Center (Basic Medical Cell Center, Institute of Basic Medical Sciences, Chinese Academy of Medical Sciences). The cells were cultured in DMEM containing 10% FBS and 1% penicillin–streptomycin and incubated with 5% CO2 at 37 °C. Cells were allowed to grow to approximately 80% confluency and were sub-cultured at a ratio of 1:3 [27]. In this study, to simulate the process of nonalcoholic fatty liver disease in vitro, 0.2 mM oleic acid (OA) was added to the culture medium for 48 h to induce human HepG2 to establish a nonalcoholic fatty liver cell model [28].
HepG2 cells were seeded into 96-well plates after achieving logarithmic growth and cultured overnight at 37 °C with 5% CO2. After treatment with different concentrations of compounds (dissolved in DMSO) for 24 h, 10 μL CCK-8 solution (Cell Counting Kit-8, Sigma-Aldrich (St. Louis, MO, USA)) was added to each well and the plate was incubated for 2 h in the incubator. Then, the absorbance at 450 nm was measured using a microplate reader. The normal control group was treated with the same amount of DMSO as the experiment group [29]. Cell viability was calculated by: cell viability (%) = (ODdrug/ODcontrol) × 100%.

Compound | inhibition at 100 µg/mL [1] [%] | pIC50 [2] | viability at 24 h, 100 μg/mL [3] [%] | inhibition at 25 µg/mL ([1]; 25 μg/mL) [%] | viability at 24 h, 25 μg/mL [3] [%]
C=CC(C)(C)c1[nH]c2c(CC3OC3(C)C)cccc2c1C=C1NC(=O)C(C)NC1=O (centres unmarked) [Compound 1, variecolorin P] | 37.3 | 6.90 | 110 |  | 
C=CC(C)(C)c1[nH]c2cc(CC=C(C)C)ccc2c1/C=C1\NC(=O)[C@H](C)NC1=O [Compound 3, neoechinulin D] | -67.3 |  | 11.2 |  | 
C=CC(C)(C)c1[nH]c2c(CC=C(C)C)cccc2c1/C=C1\NC(=O)[C@H](C)NC1=O [Compound 4, variecolorin G] | -15.3 |  |  |  | 
C=CC(C)(C)c1[nH]c2c(CC=C(C)C)cc(CC=C(C)C)cc2c1C[C@@H]1NC(=O)[C@H](C)NC1=O [Compound 5, echinulin] |  |  |  | 5.46 | 94.5

— PMC10055714, “The Hypolipidemic Characteristics of a Methanol Extract of Fermented Green Tea and Spore of Eurotium cristatum SXHBTBU1934 in Golden Hamsters” (Nutrients, 2023)
